According to US20240294478A1, “ANTI-CANCER COMPOUNDS AND METHODS OF USE” (YALE UNIVERSITY, priority 2021, published 2024):
Like-named read-outs stand apart in the source and are kept apart here.

Assays:
LN229 MGMT+/MMR+ cells = assay: Short-term cell viability assay, LN229 MGMT+/MMR+; assay type: cell-based; conditions: Homo sapiens, read-out: IC50 against LN229 cell lines, MGMT+ MMR+
Experimental: LN229 MGMT- and MGMT+ cell lines were a gift from B. Kaina (Johannes Gutenberg University Mainz, Mainz, Germany) and grown in Gibco® Duilbecco's Modified Eagle Medium with 10% fetal bovine serum (DMEM). For each compound tested, the relationship between MGMT status and MMR status and compound activity, in terms of IC50 values ([…]), was determined by the following method. On day 1, LN229 isogenic cells of varying MGMT and MMR status were seeded in 96 well format at a density of 2000 cells/well in 100 μL of DMEM media and allowed to adhere overnight. On day 2, a drug master plate was made with 100×the desired maximal concentration of test compound and serially diluted by 2 until 100×the minimal desired concentration, with one DMSO control. Then daughter plates were created with varied concentrations from 3-times the minimal concentration to 3-times the maximal desired concentration. Afterwards, 50 μL of daughter drug plate was added to 100 μL of the seeded cells for a final concentration of 1×in triplicate. Cells were allowed to grow for 6 days. On day 7, the cells were fixed, and stained with Hoechst nuclear dye and imaged to determine growth inhibition.
For each compound tested, the relationship between MGMT status and MMR status and compound activity, in terms of IC50 values (in μM), was determined. In addition, for each compound, the therapeutic index (TI) was calculated, according to the equation MGMT TI=IC50 (MGMT+/MMR+) divided by IC50 (MGMT−/MMR+). The T1 indicates the efficacy of a compound in treating the targeted MGMT-cancer cells as compared to potential for the same compound to damage, or have adverse effects against, normal cells which are MGMT+cells, The higher the value of the TI, the safer the compound is. […] MMR RI (resistance index)=IC50 (MGMT−/MMR−) divided by IC50 (MGMT−/MMR+). The higher the value of the RI, the less likely that resistance to the compound will develop.
(§1) Short-term Cell Viability Assay. Cells were seeded in 96-well plates at 1000 or 2000 cells/well and allowed to adhere at 23° C. for 60 min and then incubated overnight at 37° C. Cells were treated with indicated concentrations of compounds in triplicate for 4-6 days prior to fixation with 3.7% paraformaldehyde and nuclear staining with 1 μg/mL Hoechst 33342 dye. Cells were imaged on a Cytation 3 imaging reader (BioTek) and quantified using CellProfiler software. For in vitro short-term growth delay experiments, IC50 values were determined from the nonlinear regression equation, [inhibitor] vs normalized response with variable slope.

[1] = test system: HCT116 cells complemented with chromosome 3 carrying wildtype MLH1 (+Chr3); assay: Short-term viability assay, HCT116 +Chr3 cells +/- O6BG; assay type: cell-based, human; conditions: with or without 10 μM O6BG pre-treatment
Experimental: (§2) FIG. 1B: Short-term viability assay curves for KL-50 in DLD1 MSH6-deficient cells pre-treated with 0.01% DMSO control (CTR) or 10 μM O^6BG (+O^6BG) for 1 h prior to KL-50 addition. […] Short-term viability assay curves for (FIG. 1E) KL-50 in HCT116 MLH1−/−cells or (FIG. 1F) HCT116 cells complemented with chromosome 3 carrying wildtype MLH1 (+Chr3) pre-treated with 0.01% DMSO control or 10 μM O^6BG (+O^6BG) for 1 h prior to KL-50 addition. […] For these figures, points, mean; error bars, SD; n>3 technical replicates.
as §1

[2] = test system: DLD1 colorectal adenocarcinoma cells (MSH6−); assay: Short-term viability assay, DLD1 MSH6-deficient cells +/- O6BG; assay type: cell-based, human; conditions: with or without 10 μM O6BG pre-treatment (MGMT depletion)
Experimental: as §2, §1

[3] = test system: LN229 MGMT−/MMR− intracranial tumors; assay: Orthotopic intracranial LN229 MGMT-/MMR- model; assay type: in vivo, mouse; conditions: 25 mg/kg IP M-F x 1 week as printed
Text: FIGS. 10A-10G. KL-50 is efficacious in an LN229 MGMT−/MMR− intracranial model and is well tolerated with limited myelosuppression at supratherapeutic doses. […] (FIG. 10B) Mean body change with SEM of mice during maximum tolerated dose experiment in non-tumor bearing mice. (FIGS. 10C-10G) Complete blood counts for mice pre-treatment and 7 days post-treatment with escalations of single dose KL-50 delivered PO. WBC lower limit of normal (LLN): 2.2 K/L; Neutrophils LLN: 0.42 K/L; Lymphocyte LLN: 1.7 K/L; RBC LLN: 3.47 M/L; Platelet LLN: 155 K/L. *, P<0.05; ****, P<0.0001.
Mouse Protocol for Intracranial Study. LN229 MGMT−/MMR− cells stably expressing firefly luciferase (lentivirus-plasmids from Cellomics Technology; PLV-10003), were injected intracranially using a stereotactic injector. Briefly, 1.5 million cells in […] PBS were injected into the brain and the mice were imaged weekly using the IVIS Spectrum In Vivo Imaging System (PerkinElmer) according to the manufacturer's protocol. Images were taken on a weekly basis and acquired 10 min post intraperitoneal injection with d-luciferin (150 mg/kg of animal mass). […] Quantification of BLI flux (photons/see) was made through the identification of a region of interest (ROI) for each tumor.

SMILES	IC50 (LN229 MGMT+/MMR+ cells; LN-229, 144 h, Table 1, 6 days growth, Hoechst nuclear count) [µM]	IC50 (LN229 MGMT+/MMR+ cells; LN-229, Table III, shRNA None) [µM]	IC50 (LN229 MGMT+/MMR+ cells; LN-229, Table II) [µM]	cytotoxicity in HCT116 MLH1-complemented cells [1]	cytotoxicity in DLD1 cells [2]	intracranial tumor growth (BLI) [3]
Cn1nnc2c(C(N)=O)ncn2c1=O [TMZ, 4-methyl-5-oxo-2,3,4,6,8-pentazabicyclo[4.3.0]nona-2,7,9-triene-9-carboxamide, reference compound]	> 100	697 ± 60	742 ± 468	enhanced sensitivity to TMZ, which was further potentiated by MGMT depletion	inactive	only transiently suppressed tumor growth
NC(=O)c1ncn2c(=O)n(CCF)nnc12 [KL-50]		285 ± 46	587 ± 166	induced selective tumor cell killing specifically in the setting of O^6BG-induced MGMT suppression	toxic to these cells, but only after O^6BG-induced MGMT depletion	effective
